Measured values: patent US20190337921A1, “TETRASUBSTITUTED ALKENE COMPOUNDS AND THEIR USE” (Eisai R&D Management Co., Ltd., priority 2016, published 2019)

What was measured:
[1] = tested on: MCF7-WT cells (WT ER, MCF7.6); test: In vitro proliferation (viability) assay, CellTiter-Glo, MCF7-WT; assay type: cell-based; conditions: Homo sapiens, CTG on day 6 compared to day 0, read-out: WT ER CTGlo MCF7.6 GI50 Mean
Procedure: (§1) MCF7 BUS cells (Coser, et al., (2003) PNAS 100(24): 13994-13999) were maintained in Dulbecco's Modified Eagle Medium supplemented with 10%/o FBS, 4 mM L-glutamine and 1× non-essential amino acids. Lenti-X 293T cells (Clontech, Cat #632180) were routinely cultured in Dulbecco's Modified Eagle Medium supplemented with 10% FBS.
(§2) The QuikChange II XL Site-Directed Mutagenesis Kit (Agilent Technologies, Cat #200523) was used to generate Y537S, Y537C, Y537N and D538G mutations within the ERα exon 8. […]
(§3) MCF7-WT and —Y537S cells were seeded at 1500 cells/well in black-walled 96-well plates (assay plates. Costar, Cat #3904). In parallel, cells were also seeded in a separate 96-well plate (8 wells/cell line, control plate) for which a CTG (CellTiter-Glo® Luminescent Viability Assay, Promega, Cat #G7572) was measured the following day (day 0 reading). The day 0 reading was used for the GI50 calculation at the termination of the experiment. […] CTG was measured and compared to day 0 readings from control plate to assess GI50.

[2] = tested on: MCF7-Y537S cells (Y537S ER, MCF7.7); test: In vitro proliferation (viability) assay, CellTiter-Glo, MCF7-Y537S; assay type: cell-based; conditions: Homo sapiens, CTG on day 6 compared to day 0, read-out: Y537S ER CTGlo MCF7.7 GI50 Mean
Procedure: as §1, §2, §3

[3] = tested on: MCF7 cells with ectopic expression of ERα Y537S/N/C, D538G; test: In vitro proliferation of wild-type and mutant ER-bearing MCF7 lines with clinical therapies (FIG. 1); assay type: cell-based, human
Procedure: 48 h post-transfection, virus containing media was filtered and added to MCF7 cells in the presence of 8 μg/ml polybrene overnight. Two days following infection, cells were placed under selection with 10 μg/ml blasticidin for 2 weeks for stable expression.
In parallel, cells were also seeded in a separate 96-well plate (8 wells/cell line, control plate) for which a CTG (CellTiter-Glo® Luminescent Viability Assay, Promega, Cat #G7572) was measured the following day (day 0 reading). The day 0 reading was used for the GI50 calculation at the termination of the experiment. The day following seeding, compounds were added to assay plates. Briefly, a 1:4 serial dilution was prepared in DMSO at 200× final concentration for a total of 10 concentrations (9 dilutions containing compound and one is DMSO only). Serially diluted compounds were pipetted into medium to prepare a compound-medium mix at 10× final concentration. 10 μl of compound-medium mix was added to MCF7-WT and —Y537S cells at 3 wells/concentration (triplicate for each concentration). On day 3, media-compound was removed and replaced with fresh media/compound as described above. On day 6. CTG was measured and compared to day 0 readings from control plate to assess GI50.

| SMILES | GI50 [1] [nM] | GI50 [2] [nM] | Resistance of ERα mutant-bearing MCF7 lines relative to control lines [3] |
| --- | --- | --- | --- |
| CC/C(=C(/c1ccc(OCCNC/C=C/C(=O)N(C)C)cc1)c1ccc2[nH]ccc2c1)c1ccccc1 [Compound 102, (E)-4-(2-(4-((E)-1-(1H-indol-5-yl)-2-phenylbut-1-enyl)phenoxy)ethylamino)-N,N-dimethylbut-2-enamide] | 1.75 | 27.5 |  |
| C[C@]12CC[C@@H]3c4ccc(O)cc4C[C@@H](CCCCCCCCC[S+]([O-])CCCC(F)(F)C(F)(F)F)[C@H]3[C@@H]1CC[C@@H]2O (some centres unmarked) [fulvestrant] |  |  | phenotypic resistance |
| O=C(c1ccc(OCCN2CCCCC2)cc1)c1c(-c2ccc(O)cc2)sc2cc(O)ccc12 [raloxifene] |  |  | phenotypic resistance |
| CC/C(=C(\c1ccccc1)c1ccc(OCCN(C)C)cc1)c1ccccc1 [tamoxifen] |  |  | phenotypic resistance |
